ChEMBL document CHEMBL1136748, “A novel N-terminal cyclic dynorphin A analogue cyclo(N,5)[Trp(3),Trp(4),Glu(5)] dynorphin A-(1-11)NH(2) that lacks the basic N-terminus” (J Med Chem, 2003)
Where a SMILES comes first, the peptide text is derived from it. Bridges are numbered along the chain shown (N, C = ends). [ ]: non-standard residue; d: D form.

How the values were obtained:
Assay type in all cases: cell-based
[1] = molecular target: Kappa-type opioid receptor (Rattus norvegicus) (UniProt P34975); assay: Tested for maximum percentage inhibition against cloned rat Opioid receptor kappa 1 stably expressed in CHO cells by adenylyl cyclase assay
[2] = molecular target: Kappa-type opioid receptor (Cavia porcellus, UniProt P41144); assay: Binding affinity towards Opioid receptor kappa 1 using [3H]diprenorphine as radioligand in Chinese hamster ovary cells expressing cloned opioid receptors
Mu-type opioid receptor = Mu-type opioid receptor (Homo sapiens, UniProt P35372); assay: Binding affinity towards Opioid receptor mu 1 using [3H]DAMGO as radioligand in Chinese hamster ovary cells expressing cloned opioid receptors
[3] = molecular target: Delta-type opioid receptor (Rattus norvegicus, UniProt P33533); assay: Binding affinity towards Opioid receptor delta 1 using [3H]DPDPE as radioligand in Chinese hamster ovary cells expressing cloned opioid receptors
Sequence of Delta-type opioid receptor (P33533 whole entry): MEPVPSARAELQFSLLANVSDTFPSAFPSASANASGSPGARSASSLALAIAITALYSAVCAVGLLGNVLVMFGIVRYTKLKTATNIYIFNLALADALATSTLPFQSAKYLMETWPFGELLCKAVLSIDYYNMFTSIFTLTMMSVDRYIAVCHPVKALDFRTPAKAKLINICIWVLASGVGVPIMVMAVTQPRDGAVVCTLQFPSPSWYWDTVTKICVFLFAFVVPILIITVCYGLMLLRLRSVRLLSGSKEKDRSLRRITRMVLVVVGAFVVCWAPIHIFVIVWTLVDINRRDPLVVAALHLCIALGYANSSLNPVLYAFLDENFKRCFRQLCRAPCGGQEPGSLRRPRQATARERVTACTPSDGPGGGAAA

Sequence of Kappa-type opioid receptor (Rattus norvegicus) (P34975 whole entry): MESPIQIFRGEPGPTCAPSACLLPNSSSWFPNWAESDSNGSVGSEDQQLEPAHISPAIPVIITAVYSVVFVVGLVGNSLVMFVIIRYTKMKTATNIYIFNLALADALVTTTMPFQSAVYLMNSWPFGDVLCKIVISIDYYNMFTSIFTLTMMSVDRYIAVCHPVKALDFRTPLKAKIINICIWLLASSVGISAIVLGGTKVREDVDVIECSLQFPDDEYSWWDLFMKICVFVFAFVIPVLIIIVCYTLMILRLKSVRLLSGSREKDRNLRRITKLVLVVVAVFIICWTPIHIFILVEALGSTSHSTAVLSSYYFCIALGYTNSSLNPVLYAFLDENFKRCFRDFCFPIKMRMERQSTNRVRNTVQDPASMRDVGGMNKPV
Sequence of Kappa-type opioid receptor (P41144 whole entry): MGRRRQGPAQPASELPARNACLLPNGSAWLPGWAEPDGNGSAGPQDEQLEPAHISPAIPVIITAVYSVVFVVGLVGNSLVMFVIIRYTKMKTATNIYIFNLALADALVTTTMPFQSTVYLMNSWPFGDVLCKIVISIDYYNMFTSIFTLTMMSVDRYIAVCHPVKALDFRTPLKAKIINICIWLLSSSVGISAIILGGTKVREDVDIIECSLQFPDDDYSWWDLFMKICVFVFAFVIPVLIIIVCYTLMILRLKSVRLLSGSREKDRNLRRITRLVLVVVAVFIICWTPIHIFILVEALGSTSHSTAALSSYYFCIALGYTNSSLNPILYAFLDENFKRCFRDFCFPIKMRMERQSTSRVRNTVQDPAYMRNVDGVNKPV
Sequence of Mu-type opioid receptor (P35372 whole entry): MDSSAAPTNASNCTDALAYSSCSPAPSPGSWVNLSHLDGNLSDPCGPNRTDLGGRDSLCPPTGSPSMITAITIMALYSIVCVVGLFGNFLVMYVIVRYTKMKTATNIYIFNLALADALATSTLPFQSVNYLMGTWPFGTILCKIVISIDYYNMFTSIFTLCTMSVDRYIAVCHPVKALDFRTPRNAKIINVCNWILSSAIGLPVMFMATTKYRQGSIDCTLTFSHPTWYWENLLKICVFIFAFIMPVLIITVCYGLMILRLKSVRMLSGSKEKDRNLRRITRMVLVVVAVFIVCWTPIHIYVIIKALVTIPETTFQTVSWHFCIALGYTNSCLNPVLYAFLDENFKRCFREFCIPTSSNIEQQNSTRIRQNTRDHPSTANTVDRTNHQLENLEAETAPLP

| Compound | inhibition [1] | Ki [2] | Ki (Mu-type opioid receptor) | Ki [3] |
| --- | --- | --- | --- | --- |
| CC(=O)N[C@@H](Cc1ccc(O)cc1)C(=O)NCC(=O)N[C@@H](Cc1c[nH]c2ccccc12)C(=O)N[C@@H](Cc1c[nH]c2ccccc12)C(=O)N[C@@H](CC(C)C)C(=O)N[C@@H](CCCN=C(N)N)C(=O)N[C@@H](CCCN=C(N)N)C(=O)N[C@@H](C)C(=O)N[C@@H](CCCN=C(N)N)C(=O)N1CCC[C@H]1C(=O)N[C@@H](CCCCN)C(N)=O | 15% | – | – | – |
| CC[C@H](C)[C@H](NC(=O)[C@H](CCCN=C(N)N)NC(=O)[C@H](CCCN=C(N)N)NC(=O)[C@@H]1CCC(=O)N[C@@H](Cc2ccc(O)cc2)C(=O)NCC(=O)N[C@@H](Cc2c[nH]c3ccccc23)C(=O)N[C@@H](Cc2c[nH]c3ccccc23)C(=O)N1)C(=O)N[C@@H](CCCN=C(N)N)C(=O)N1CCC[C@@H]1C(=O)N[C@@H](CCCCN)C(=O)O | 8% | – | – | – |
| CC[C@H](C)[C@H](NC(=O)[C@H](CCCNC(=N)N)NC(=O)[C@H](CCCNC(=N)N)NC(=O)[C@@H]1CCC(=O)N[C@@H](Cc2ccc(O)cc2)C(=O)NCC(=O)N[C@@H](Cc2c[nH]c3ccccc23)C(=O)N[C@@H](Cc2c[nH]c3ccccc23)C(=O)N1)C(=O)N[C@@H](CCCNC(=N)N)C(=O)N1CCC[C@H]1C(=O)N[C@@H](CCCCN)C(N)=O (YGWWERRIRPK-NH2; lactam N-5) | – | 26.8 nM | 331 nM | > 8900 nM |
| CC(=O)N[C@@H](Cc1ccc(O)cc1)C(=O)N[C@@H](CCCCN)C(=O)N[C@@H](Cc1c[nH]c2ccccc12)C(=O)N[C@@H](Cc1c[nH]c2ccccc12)C(=O)N[C@@H](CC(C)C)C(=O)N[C@@H](CCCN=C(N)N)C(=O)N[C@@H](CCCN=C(N)N)C(=O)N[C@H](C)C(=O)N[C@@H](CCCN=C(N)N)C(=O)N1CCC[C@H]1C(=O)N[C@@H](CCCCN)C(N)=O [VENORPHIN] (Ac-YKWWLRR[dA]RPK-NH2) | – | 19.8 nM | – | 5320 nM |
| CC(=O)N[C@@H](Cc1ccc(O)cc1)C(=O)NCC(=O)N[C@@H](Cc1c[nH]c2ccccc12)C(=O)N[C@@H](Cc1c[nH]c2ccccc12)C(=O)N[C@@H](CC(C)C)C(=O)N[C@@H](CCCN=C(N)N)C(=O)N[C@@H](CCCN=C(N)N)C(=O)N[C@H](C)C(=O)N[C@@H](CCCN=C(N)N)C(=O)N1CCC[C@H]1C(=O)N[C@@H](CCCCN)C(N)=O [[GLY2]VENORPHIN] | – | 8.4 nM | 339 nM | > 10000 nM |
| Ac-YKWWLRRARPK-NH2 | 28% | – | – | – |
